Reference: patent US8026217B2, “Compositions and methods for treating neural anoxia and spreading depression” (Florida Atlantic University, priority 2007, dated 2011)
Entries after “also recorded” stand apart in the source; their conditions may differ. Read-outs that look alike come from different tables or passages of the source.

Tests used:
[1] = system: metathoracic ganglion of the locust; experiment: Repetitive SD triggered by ouabain in locust; format: in vivo, Locusta migratoria; conditions: for number of repetitive SD-like events in animals that generated SD: ouabain exposure, FIG. 2D; for baseline [K+]o levels during ouabain exposure: pre-treatment, FIG. 2E
Excerpt: In a second set of experiments, repetitive SD triggered by the ionic disturbance caused by ouabain (a specific inhibitor of the sodium/potassium pump that restores ionic gradients across cell membranes) was examined.
Pretreatment with a bath application of KT5823 prevented repetitive SD in 70% of animals. […] FIG. 2B illustrates a representative example in a single preparation of the eradication of repetitive SD by prior bath application of KT5823. FIG. 2C illustrates that KT5823 reduced the percentage of preparations showing repetitive SD in response to ouabain, while FIG. 2D illustrates that control and KT5823-treated preparations have fewer repetitive SD events.

[2] = system: adult Drosophila melanogaster; format: in vivo; conditions: sitter adults, volatilized from DMSO 1 hr, 1 mM KT5823, 1 mM Cantharidin, 200 mM DCA, 10 mM 8-Bromo cGMP, 10 mM T-0156, versus DMSO sham
Procedure: FIG. 9 is a diagram illustrating in vivo treatment of adult Drosophila melanogaster with pharmacological agents. […] Adult sitters were exposed to various drugs known to target components of the PKG pathway (FIG. 8A). These drugs included: 10 mM T0156, a cGMP-specific phosphodiesterase-5 inhibitor, 10 mM 8-Bromo-cGMP, a PKG activator, 1 mM KT5823, a PKG inhibitor, 1 mM Cantharidin, a PP2A inhibitor, and 200 mM DCA, a K^+ channel activator. All drugs were solubilized in dimethyl sulfoxide (DMSO), where flies treated with only DMSO were used as sham controls. […] 10 μL of drug solution was applied to a crushed Kim wipe at the bottom of each 10 mL test vial. An additional Kim wipe was crushed over top of this to prevent direct contact between the fly and solution. 10 flies were then placed in the vial which was capped with a semi-permeable buzz-stopper, covered with a cut-out finger of a large latex glove to prevent chemical vapours from escaping, and incubated in the dark. The flies were subjected to the drug for 1 hr prior to each behavioural assay. In the drug combination experiments, 20 uL of DMSO was used as a control sham, and combinations of two pharmacological treatments were added as two separate 10 uL aliquots.
Whether or not fly PKG levels could be manipulated in vivo using a technique that uses volatilization of pharmacological agents was next examined. The role of these targets in vivo using sitter flies was examined by depositing pharmacological agents dissolved in DMSO on a cellulose tissue, and allowing them to volatize over minutes in an air tight vial at room temperature (FIG. 9). Adults were exposed to the volatilized compound for one hour in the dark and then assayed for locomotory resilience to acute hypoxia. Control sham animals (FIG. 7A) were treated with only DMSO. Compounds were chosen to target different components of the cGMP pathway (FIG. 8A) in tracheal smooth muscle and Chinese hamster ovary cells, where cGMP activates PKG, thereby activating PP2A, which then de-phosphorylates K^+ channels. The hypothesis that inhibition of this pathway would result in an increase in whole cell K^+ channel conductance, thereby leading to increased resilience to anoxic coma onset, was tested.
Locomotory Tolerance Assay during Acute Hypoxia: Ten flies (separated into males or females) from each of the three strains (rover [for^R], sitter [for^S] and for^s2) were selected and placed in three separate vials with food at least 24 hours before each experiment. At the time of the experiment, flies were emptied into 10 mL empty test vials covered with permeable sponge caps of equivalent thickness, allowing for consistent gas exchange. These test vials were then placed into a 600 mL beaker which was covered with parafilm, creating a closed chamber with an escape hole (1 cm diameter). The parafilm top was punctured with a needle connected to a gas tank (by a plastic hose), through which the inert gas argon was expelled. […] The needle tip was fastened to the bottom of the beaker and inserted into a larger sponge of similar texture to the vial sponge caps to ensure that gas expelled from the needle was dispersed equally throughout the beaker. Also, to ensure that all test vial positions in the beaker received equal gas flow, test vial positions were alternated every trial to reduce variability.
The experiment required exposing the test vials with 10 flies in the container to pure argon gas expelled from the tank at a flow rate of 600 cc/min+/−5%. Time of behavioural failure was recorded by observing the fly undergo a seizure, which was quickly followed by an anoxic coma.

PKG = PKG enzyme activity assay on heads of treated flies; format: biochemical, Drosophila melanogaster; conditions: heads of sitter flies treated in vivo with volatilized agent, versus sham control
Procedure: PKG enzyme activity assays: PKG enzyme activity assays were conducted according to the procedure outlined in Kaun et al. (J Exp Biol. 210(Pt 20):3547-3558, 2007). Adult Drosophila were decapitated and the heads were homogenized in 25 mM 1-1 Tris (pH 7.4), 1 mM 1-1 EDTA, 2 mM 1-1 EGTA, 5 mM 1-1 β-mercaptoethanol, 0.05% Triton X-100 and protease inhibitor solution (Roche Diagnostics). Following microcentrifugation for 5 min, the supernatant was removed and those supernatants containing equal amounts of total protein were examined for PKG enzyme activity. The reaction mixture contained the following substances: 40 mM 1-1 Tris-HCl (pH 7.4), 20 mM 1-1 magnesium acetate, 0.2 mM 1-1 [γ^32P]ATP (500-1000 c.p.m. pmol−1), […] heptapeptide (RKRSRAE), (SEQ ID NO:6), (3 mM 1-1 cGMP and a highly specific inhibitor of cAMP-dependent protein kinase. The next step of the procedure involved incubating the reaction mixtures at a temperature of 30° C. for 10 min, followed by ending the reaction by spotting 70 μl of the reaction mixture onto Whatman P-81 filters. To remove any unreacted [γ^32P]ATP, these spots were then soaked with 75 mM 1-1 H3PO4 for 5 min and washed three times with 75 mM 1-1 H3PO4. Before quantifying enzyme activity, filters were rinsed with 100% ethanol and air dried. To calculate PKG enzyme activity, counts were taken in a Wallac 1409 Liquid Scintillation Counter using universal scintillation cocktail (ICN). PKG activity was presented in the figures as pmol of ^32P incorporated into the substrate min−1 mg−1 protein.

respiratory brain slices = experiment: Neural function in respiratory brain slices during sodium azide-induced anoxia; set-up: species or system mouse or rat; conditions: expected
Excerpt: Neural function in mammals (mouse or rat) is examined pharmacologically during acute anoxia in respiratory brain slices via sodium azide, which chemically induces anoxia. Following administration of the sodium azide, the time until neural failure is monitored. This is done in the presence of a PDE5 inhibitor, 8-bromo-GMP, KT5823, and Cantharidin.

mammals (mouse or rat) = experiment: Spreading depression in mammals; format: in vivo; conditions: expected
Excerpt: The pharmacological effects of a PDE5 inhibitor, 8-bromo-GMP, KT5823, and Cantharidin during spreading depression are examined in mammals (mouse or rat).

Compound | animals in which repetitive SD was generated ([1]; concomitantly treated with 10^-4 M ouabain) | number of repetitive SD-like events in animals that generated SD [1] | baseline [K+]o levels during ouabain exposure [1] | time to anoxic coma onset during acute hypoxia, single agents ([2]; listed as 8-Bromo cGMP) | time to anoxic coma onset during acute hypoxia, single agents ([2]; listed as 8-bromo cGMP) | head PKG enzyme activity (PKG; listed as 8-Bromo cGMP) | head PKG enzyme activity (PKG; listed as 8-bromo cGMP) | time until neural failure (respiratory brain slices) | SD-like events and neural function (mammals (mouse or rat)) | animals in which repetitive SD was prevented ([1]; pretreatment by bath application, then ouabain) | time to anoxic coma onset during acute hypoxia, single agents [2] | head PKG enzyme activity (PKG)
Nc1nc2c(nc(Br)n2[C@@H]2O[C@@H]3COP(=O)(O)O[C@H]3[C@H]2O)c(=O)[nH]1 [8-Br-cGMP] | 100% | significantly fewer SD-like events than 8-Br-cGMP-treated animals | did not raise the baseline [K^+]o levels above controls | exhibited significant sensitivity to anoxic coma | enhanced sensitivity to acute hypoxia; also recorded: expedited locomotory failure during acute hypoxia of sitters to rover levels | demonstrated significant effects compared to that of the sham control | induced an increase in head PKG activity levels; also recorded: increasing head PKG activity levels significantly beyond rover levels | increased sensitivity to anoxia causing early failure of neural function | increased SD-like events causing early failure of neural function | – | – | –
COC(=O)[C@@]1(OC)C[C@H]2O[C@]1(C)n1c3ccccc3c3c4c(c5c6ccccc6n2c5c31)C(=O)N(C)C4 [KT5823, (9S, 10R, 12R)-2,3,9,10,11,12-Hexahydro-10-methoxy-2-9-dimethyl-1-oxo-9,12-epoxy-1H-diindolo-[1,2,3-fg:3′,2′,1′-k1]pyrrolo[3,4-i][1,6]benzodiazocine-10-carboxylic acid methyl ester] | – | significantly more SD-like events than KT5823-treated animals | significantly reduces the baseline [K^+]o levels | – | – | – | – | neuroprotection and prolonged neural function when subject to anoxia | neuroprotection and reduces SD-like events thereby prolonging neural function | 70% | significant increase in tolerance to acute hypoxia; also recorded: demonstrated significant resilience to anoxic coma | significantly reducing PKG activity; also recorded: demonstrated significant effects compared to that of the sham control
